Assay results published in US20240254087A1, “SELECTIVE, PARTIAL, AND ARRESTIN-BIASED 5-HT2A AGONISTS WITH UTILITY IN VARIOUS DISORDERS” (Saint Joseph's University, priority 2021, published 2024).
Read-outs that look alike come from different tables or passages of the source.

Key:
[1] = tested on: 5-HT2A; assay: Ca2+ flux assay, 5-HT2A; type: cell-based, human; details: Gq/11 Ca2+ mobilization; higher number = skewed towards 5-HT2A
[2] = molecular target: T1, 5-HT1A (Homo sapiens, UniProt P08908); assay: Competitive radioligand binding (NIMH PDSP)
T1 sequence (P08908 1-422): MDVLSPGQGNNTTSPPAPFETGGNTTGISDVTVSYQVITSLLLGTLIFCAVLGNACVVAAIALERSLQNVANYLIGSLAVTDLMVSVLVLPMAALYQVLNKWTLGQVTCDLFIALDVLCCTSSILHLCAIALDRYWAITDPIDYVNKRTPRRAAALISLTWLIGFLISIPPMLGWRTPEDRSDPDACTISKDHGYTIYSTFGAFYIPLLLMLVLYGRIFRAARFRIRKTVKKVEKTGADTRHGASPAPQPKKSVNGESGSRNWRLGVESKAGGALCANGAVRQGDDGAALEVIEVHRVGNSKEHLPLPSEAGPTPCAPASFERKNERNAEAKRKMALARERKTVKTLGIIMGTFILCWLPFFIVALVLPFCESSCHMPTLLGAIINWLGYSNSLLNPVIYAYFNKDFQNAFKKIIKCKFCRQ
Experimental: (§1) Method 1: Competitive binding experiments were performed by the National Institute of Mental Health Psychoactive Drug Screening Program (NIMH PDSP) using described methods or 5-HT2A experiments performed using [3H]-ketanserin displacement in human 5-HT2A expressing membranes. Target compounds were dissolved in DMSO and an initial screen performed to assess displacement of the radioligand from target receptors at a concentration of 10,000 nM. […] For the Ki experiments, compounds were always tested in triplicate on separate plates. Each plate also contained a known ligand for the receptor as a positive control.

[3] = molecular target: 5-HT1B (Homo sapiens, UniProt P28222); assay: Competitive radioligand binding (NIMH PDSP)
Sequence of 5-HT1B (P28222 whole entry, species assumed): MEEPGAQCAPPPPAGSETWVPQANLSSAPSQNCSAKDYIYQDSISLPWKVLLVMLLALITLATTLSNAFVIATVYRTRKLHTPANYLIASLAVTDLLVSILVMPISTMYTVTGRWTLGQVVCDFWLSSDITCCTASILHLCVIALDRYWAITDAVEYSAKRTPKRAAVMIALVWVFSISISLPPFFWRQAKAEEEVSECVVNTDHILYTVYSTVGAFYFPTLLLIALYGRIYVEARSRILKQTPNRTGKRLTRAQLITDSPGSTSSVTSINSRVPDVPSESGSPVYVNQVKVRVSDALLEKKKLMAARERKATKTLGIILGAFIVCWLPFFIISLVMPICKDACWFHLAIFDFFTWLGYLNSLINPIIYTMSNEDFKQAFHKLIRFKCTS
Experimental: as §1

[4] = molecular target: 5-HT1D (Homo sapiens, UniProt P28221); assay: Competitive radioligand binding (NIMH PDSP)
Sequence of 5-HT1D (P28221 whole entry, species assumed): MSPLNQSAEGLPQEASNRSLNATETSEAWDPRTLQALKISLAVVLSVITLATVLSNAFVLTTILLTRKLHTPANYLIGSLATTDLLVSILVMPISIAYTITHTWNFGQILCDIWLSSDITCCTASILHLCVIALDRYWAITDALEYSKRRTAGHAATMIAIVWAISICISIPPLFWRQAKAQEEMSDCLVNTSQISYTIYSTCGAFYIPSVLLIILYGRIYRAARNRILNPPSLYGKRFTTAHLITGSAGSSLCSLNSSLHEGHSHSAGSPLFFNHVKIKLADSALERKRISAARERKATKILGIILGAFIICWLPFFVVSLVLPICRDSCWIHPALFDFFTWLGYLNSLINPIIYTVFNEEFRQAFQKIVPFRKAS
Experimental: as §1

[5] = molecular target: 5-HT1e (Homo sapiens, UniProt P28566); assay: Competitive radioligand binding (NIMH PDSP)
Sequence of 5-HT1e (P28566 whole entry, species assumed): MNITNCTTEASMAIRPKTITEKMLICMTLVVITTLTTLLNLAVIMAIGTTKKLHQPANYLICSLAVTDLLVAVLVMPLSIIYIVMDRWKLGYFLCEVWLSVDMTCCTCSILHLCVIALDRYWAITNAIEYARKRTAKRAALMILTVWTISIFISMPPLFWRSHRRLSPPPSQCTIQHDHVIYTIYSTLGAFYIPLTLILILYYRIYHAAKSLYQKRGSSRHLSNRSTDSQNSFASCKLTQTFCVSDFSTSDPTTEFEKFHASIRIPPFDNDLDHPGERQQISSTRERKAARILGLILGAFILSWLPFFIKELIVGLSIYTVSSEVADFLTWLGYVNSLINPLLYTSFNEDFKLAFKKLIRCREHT
Experimental: as §1

[6] = molecular target: T2, 5-HT2A (Homo sapiens, UniProt P28223); assay: Competitive radioligand binding (NIMH PDSP)
T2 sequence (P28223 whole entry): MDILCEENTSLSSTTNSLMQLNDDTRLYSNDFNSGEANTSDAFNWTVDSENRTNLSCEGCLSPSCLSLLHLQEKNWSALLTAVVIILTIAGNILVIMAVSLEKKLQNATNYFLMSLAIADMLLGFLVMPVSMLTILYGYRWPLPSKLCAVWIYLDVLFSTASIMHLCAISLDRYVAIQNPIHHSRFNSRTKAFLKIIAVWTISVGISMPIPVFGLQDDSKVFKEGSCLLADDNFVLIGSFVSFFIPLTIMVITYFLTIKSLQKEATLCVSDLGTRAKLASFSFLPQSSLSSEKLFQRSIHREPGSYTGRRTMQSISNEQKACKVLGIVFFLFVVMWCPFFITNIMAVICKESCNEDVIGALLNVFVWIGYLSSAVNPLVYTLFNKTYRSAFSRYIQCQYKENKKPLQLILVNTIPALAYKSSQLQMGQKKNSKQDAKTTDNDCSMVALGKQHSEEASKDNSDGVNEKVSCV
Experimental: as §1

[7] = molecular target: T3, 5-HT3 (Homo sapiens, UniProt P46098); assay: Competitive radioligand binding (NIMH PDSP)
T3 sequence (P46098 24-478): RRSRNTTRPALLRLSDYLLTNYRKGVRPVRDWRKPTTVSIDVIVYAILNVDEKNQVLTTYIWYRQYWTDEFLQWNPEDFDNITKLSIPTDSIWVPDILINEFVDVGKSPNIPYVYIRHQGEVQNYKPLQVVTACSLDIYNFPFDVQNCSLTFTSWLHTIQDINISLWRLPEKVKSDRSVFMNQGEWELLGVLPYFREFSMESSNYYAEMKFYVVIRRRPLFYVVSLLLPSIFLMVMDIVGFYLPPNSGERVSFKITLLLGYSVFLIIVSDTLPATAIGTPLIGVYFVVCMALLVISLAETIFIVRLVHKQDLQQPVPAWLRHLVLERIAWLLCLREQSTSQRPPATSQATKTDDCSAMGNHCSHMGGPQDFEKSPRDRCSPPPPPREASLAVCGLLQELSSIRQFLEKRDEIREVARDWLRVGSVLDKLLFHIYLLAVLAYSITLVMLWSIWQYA
Experimental: as §1

[8] = molecular target: T2, 5-HT2A; assay: Ca2+ flux assay, 5-HT2A; type: cell-based; set-up: expressed in transfected cells; details: for Emax: read-out: 5-HT2A Emax % 5-HT, Ca2+ flux
[9] = molecular target: T4, 5-HT2B (Homo sapiens, UniProt P41595); assay: Ca2+ flux assay, 5-HT2B; type: cell-based; set-up: expressed in transfected cells; details: for Emax: read-out: 5-HT2B Emax % 5-HT
T4 sequence (P41595 whole entry): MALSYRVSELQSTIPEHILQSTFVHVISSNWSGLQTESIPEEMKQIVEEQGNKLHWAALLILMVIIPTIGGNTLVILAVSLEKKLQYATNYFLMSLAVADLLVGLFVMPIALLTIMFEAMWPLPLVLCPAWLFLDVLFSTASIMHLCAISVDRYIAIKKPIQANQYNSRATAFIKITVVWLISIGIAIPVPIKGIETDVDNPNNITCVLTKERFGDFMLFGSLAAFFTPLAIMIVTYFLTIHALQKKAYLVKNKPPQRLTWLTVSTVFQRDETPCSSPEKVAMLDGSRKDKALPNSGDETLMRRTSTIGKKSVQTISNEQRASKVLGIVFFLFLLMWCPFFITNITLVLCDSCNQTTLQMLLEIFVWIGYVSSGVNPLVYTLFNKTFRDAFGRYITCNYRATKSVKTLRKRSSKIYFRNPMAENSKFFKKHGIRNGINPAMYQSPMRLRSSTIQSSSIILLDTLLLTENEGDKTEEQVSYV

[10] = molecular target: T5, 5-HT2C (Homo sapiens, UniProt P28335); assay: Ca2+ flux assay, 5-HT2C; type: cell-based; set-up: expressed in transfected cells; details: for Emax: read-out: 5-HT2C Emax % 5-HT
T5 sequence (P28335 33-458): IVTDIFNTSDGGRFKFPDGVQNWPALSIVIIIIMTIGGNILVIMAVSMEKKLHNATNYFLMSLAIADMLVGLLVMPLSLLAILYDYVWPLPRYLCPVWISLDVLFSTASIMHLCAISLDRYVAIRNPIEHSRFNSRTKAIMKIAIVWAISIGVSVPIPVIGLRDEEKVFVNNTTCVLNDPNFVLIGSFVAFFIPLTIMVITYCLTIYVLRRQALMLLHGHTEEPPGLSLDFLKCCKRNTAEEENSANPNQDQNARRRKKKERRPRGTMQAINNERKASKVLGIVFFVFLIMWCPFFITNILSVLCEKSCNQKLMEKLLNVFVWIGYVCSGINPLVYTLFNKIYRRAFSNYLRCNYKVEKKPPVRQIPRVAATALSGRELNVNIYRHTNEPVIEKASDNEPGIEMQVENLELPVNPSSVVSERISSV

[11] = molecular target: T4, 5-HT2B; assay: Competitive radioligand binding (NIMH PDSP); set-up: expressed in transfected cells
Experimental: as §1

[12] = molecular target: T5, 5-HT2C; assay: Competitive radioligand binding (NIMH PDSP); set-up: expressed in transfected cells
Experimental: as §1

[13] = 5-HT2A (pEC50 ± SEM), Ca2+ flux

Structure (SMILES): COc1cc([N+](=O)[O-])c(OC)cc1CCNCc1ccccc1OC(F)(F)F [25N-NBOCF3 (12)]
- 5-HT2A/5-HT2c Selectivity Factor ΔLog(Emax/EC50) [1]: 6.1
- 5-HT1A pKi affinity (Ki ± SEM) [2]: 5.95
- 5-HT1B pKi affinity (Ki ± SEM) [3]: <5
- 5-HT1D pKi affinity (Ki ± SEM) [4]: <5
- 5-HT1e pKi affinity (Ki ± SEM) [5]: <5
- 5-HT2A pKi affinity (Ki ± SEM) [6]: 7.84
- 5-HT3 pKi affinity (Ki ± SEM) [7]: <5
- 5-HT2A (pEC50 ± SEM) ([8]; Ca2+ flux): (8.09 ± 0.09)
- 5-HT2A Emax % 5-HT ([8]; Ca2+ flux): 75 ± 2 % 5-HT
- EC50 ([8]; Ca2+ flux, read-out: 5-HT2A EC50): 8.09 nM
- 5-HT2B EC50, nM ([9]; Ca2+ flux): No activity
- 5-HT2B Emax % 5-HT ([9]; Ca2+ flux): <10 % 5-HT
- 5-HT2C (pEC50 ± SEM) [10]: (7.23 ± 0.04)
- 5-HT2C Emax % 5-HT [10]: 89 ± 1 % 5-HT
- EC50 ([10]; read-out: 5-HT2C EC50): 58.3 nM
- 5-HT2B pKi affinity (Ki ± SEM) [11]: 7.86
- 5-HT2C pKi affinity (Ki ± SEM) [12]: 7.33

Structure (SMILES): COc1cc([N+](=O)[O-])c(OC)cc1CCN [2C-N (1), 2-(2,5-dimethoxy-4-nitrophenyl)ethan-1-amine, reference compound]
- 5-HT2A/5-HT2c Selectivity Factor ΔLog(Emax/EC50) [1]: 19.1
- Ki [2]: 1450 nM
- Ki [3]: > 10000 nM
- Ki [4]: 832 nM
- Ki [5]: 676 nM
- Ki [6]: 72.4 nM
- Ki [7]: > 10000 nM
- EC50 [8, 13]: 4.9 nM
- EC50 ([8]; 5-HT2A EC50, nM, Ca2+ flux): 4.56 nM
- Emax [8]: 100 ± 1%
- EC50 [9]: 50.3 nM
- Emax ([9]; Ca2+ flux): 72 ± 3%
- EC50 ([10]; 5-HT2C EC50, nM): 60.1 nM
- Emax [10]: 69 ± 2%
- Ki [11]: 123 nM
- Ki [12]: 162 nM

Structure (SMILES): COc1cc([N+](=O)[O-])c(OC)cc1CCNCc1ccccc1OC [25N-NBOMe (4), [2-(2,5-dimethoxy-4-nitrophenyl)ethyl] [(2-methoxyphenyl)methyl]amine]
- 5-HT2A/5-HT2c Selectivity Factor ΔLog(Emax/EC50) [1]: 2.4
- Ki [2]: 1860 nM
- Ki [3]: > 10000 nM
- Ki [4]: 5620 nM
- Ki [5]: > 10000 nM
- Ki [6]: 0.55 nM
- Ki [7]: > 10000 nM
- EC50 [8, 13]: 0.316 nM
- Emax [8]: 94%
- 5-HT2B EC50, nM ([9]; Ca2+ flux): No activity
- Emax ([9]; Ca2+ flux): < 10%
- EC50 ([10]; 5-HT2C (pEC50 ± SEM)): 0.851 nM
- EC50 ([10]; 5-HT2C EC50, nM): 0.84 nM
- Emax [10]: 102 ± 1%
- Ki [11]: 4.47 nM
- Ki [12]: 6.92 nM

Structure (SMILES): COc1cc([N+](=O)[O-])c(OC)cc1CCNCc1cccc(C)c1O [25N-NB-2-OH-3-Me (18), 2-({[2-(2,5-dimethoxy-4-nitrophenyl)ethyl]amino}methyl)-6-methylphenol]
- 5-HT2A/5-HT2c Selectivity Factor ΔLog(Emax/EC50) [1]: 5-HT2A Selective
- Ki [2]: 186 nM
- Ki [3]: > 10000 nM
- Ki [4]: 1290 nM
- Ki [5]: > 10000 nM
- Ki [6]: 0.479 nM
- Ki [7]: > 10000 nM
- EC50 ([8]; 5-HT2A EC50, nM, Ca2+ flux): 1.58 nM
- Emax [8]: 55 ± 2%
- 5-HT2B EC50, nM ([9]; Ca2+ flux): No activity
- Emax ([9]; Ca2+ flux): < 10%
- 5-HT2C EC50, nM [10]: No activity
- Emax [10]: < 10%
- Ki [11]: 0.776 nM
- Ki [12]: 2.88 nM

Structure (SMILES): COc1cc([N+](=O)[O-])c(OC)cc1CCNCc1ccccc1-c1ccccc1 [25N-NBPh (17), ({[1,1′-biphenyl]-2-yl}methyl)[2-(2,5-dimethoxy-4-nitrophenyl)ethyl]amine]
- 5-HT2A/5-HT2c Selectivity Factor ΔLog(Emax/EC50) [1]: 5-HT2A Selective
- Ki [2]: 1780 nM
- Ki [3]: > 10000 nM
- Ki [4]: 1200 nM
- Ki [5]: > 10000 nM
- Ki [6]: 0.331 nM
- Ki [7]: > 10000 nM
- 5-HT2A EC50, nM ([8]; Ca2+ flux): No activity
- Emax [8]: < 10%
- 5-HT2B EC50, nM ([9]; Ca2+ flux): No activity
- Emax ([9]; Ca2+ flux): < 10%
- 5-HT2C EC50, nM [10]: No activity
- Emax [10]: < 10%
- Ki [11]: 1410 nM
- Ki [12]: 372 nM
